Literature values as cited in US20100216762A1, “Agonists and Antagonists of the S1P5 Receptor, and Methods of Use Thereof” (ABBOTT LABORATORIES, priority 2009, published 2010).

Columns and labels:
[1] = spared-nerve injury model of neuropathic pain

| SMILES | nociception in the formalin model | nociceptive behavior in the spared-nerve injury model [1] | Aβ-induced migration of monocytes to sites of injury (monocytes) |
| --- | --- | --- | --- |
| CCCCCCCCc1ccc(CCC(N)(CO)CO)cc1 [FTY720] | anti-nociceptive | reduced nociceptive behavior | inhibits that migration |
| FC(F)(F)c1cccc(-c2noc(-c3cc(-c4ccccc4)c(C(F)(F)F)s3)n2)c1 [SEW2871] | lack of activity | – | – |
